This is an account of results in ChEMBL document CHEMBL1201862, “PubChem BioAssay data set” (2004).

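Each compound was tested at five concentrations against cells in 96-well plates for 48 hours. GI50 = concentration required for 50% inhibition of growth.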 Calls of active or inactive are those of the source. Rule as the data show it: active = GI50 up to about 1.1 µM and inactive = higher.

Among the test systems are 786-0; EKVX; HCT-116; K562; LOX IMVI; NCI-H460; OVCAR-4; RXF 393; SF-268; SN12C; SW-620; TK-10; U-251; Malme-3M; SK-OV-3; UACC-62.
Holding throughout (experiment): NCI-60 cell line screen, 48 h

Regarding `Cc1ccc(NC(=O)SCCC(=O)O)cc1NC(=O)SCCC(=O)O`, the GI50 in the assay with 786-0, in the assay with EKVX, in the assay on HCT-116, in the assay with K562, with LOX IMVI and in the assay on NCI-H460 was > 100 µM (inactive) each time. The GI50 in the assay with OVCAR-4, in the assay on RXF 393, in the assay with SF-268, in the assay with SN12C, with SW-620 and in the assay on TK-10 was > 100 µM (inactive) throughout. For the same molecule, the GI50 in the assay on U-251 is > 100 µM (inactive).

For `CC(C)c1cccc(C(C)C)c1NC(=O)C(=O)C1SC(=S)NC1=O` (stereo unspecified), the GI50 in the assay on 786-0, in the assay with EKVX, in the assay on HCT-116, with K562, in the assay with LOX IMVI and in the assay on Malme-3M was > 100 µM (inactive) each time. In addition, the GI50 in the assay on NCI-H460, with OVCAR-4, in the assay on RXF 393, with SF-268, with SK-OV-3 and with SN12C was > 100 µM (inactive) throughout. The GI50 with SW-620, in the assay on TK-10, in the assay on U-251 and with UACC-62 was > 100 µM (inactive) throughout.

As to `COC(=O)NN1C(C)=C(C(=O)OC)C2(C#N)C(C(=O)OC)=C(C)N(NC(=O)OC)C12N` (stereo unspecified), the GI50 in the assay with 786-0, with EKVX, with HCT-116, in the assay with K562, in the assay on LOX IMVI and in the assay on Malme-3M was > 100 µM (inactive) in each case. Besides, the GI50 with NCI-H460, in the assay on OVCAR-4, with SF-268, with SK-OV-3, in the assay on SN12C and in the assay on SW-620 was > 100 µM (inactive) each time. Moreover, the GI50 in the assay with TK-10, in the assay with U-251 and in the assay on UACC-62 was > 100 µM (inactive) each time.

As for `O=c1cccccc1NCCCCCCCNc1cccccc1=O`, the GI50 was > 100 µM (inactive) in the assay on 786-0; 20.4 µM (inactive) in the assay on EKVX; 37.2 µM (inactive) in the assay with HCT-116; 17.8 µM (inactive) in the assay on K562; 12.1 µM (inactive) with LOX IMVI; 29.2 µM (inactive) with Malme-3M. In addition, the GI50 in the assay on NCI-H460 was 29.7 µM (inactive); with OVCAR-4, 27 µM (inactive); in the assay on RXF 393, 7.74 µM (inactive); in the assay with SF-268, 43.5 µM (inactive); in the assay with SK-OV-3, 42.6 µM (inactive); in the assay on SN12C, 49.3 µM (inactive). Also, the GI50 in the assay with SW-620 was 52 µM (inactive); in the assay on U-251 it was > 10 µM (inactive); in the assay with UACC-62, 19.4 µM (inactive).

Take `C=CCNC(=S)N1c2ccccc2NC(=O)CC1C` (stereo unspecified): the GI50 in the assay with 786-0, in the assay with EKVX, in the assay on HCT-116, with K562, in the assay on LOX IMVI and with Malme-3M was > 100 µM (inactive) in each case. The GI50 with NCI-H460, with OVCAR-4, with RXF 393, with SF-268, in the assay on SN12C and with SW-620 was > 100 µM (inactive) in each case. The GI50 in the assay with TK-10, in the assay with U-251 and in the assay on UACC-62 was > 100 µM (inactive) in each case.

For `CCNC(=O)O/N=C1/C=C2CC[C@@H]3C(CC[C@@]4(C)C3CC[C@@H]4OC(=O)NCC)[C@@]2(C)CC1` (stereo partly specified), the GI50 was 3.23 µM (inactive) in the assay on 786-0; 4.99 µM (inactive) with EKVX; 3.67 µM (inactive) with HCT-116; 2.87 µM (inactive) in the assay on K562; 3.32 µM (inactive) in the assay on LOX IMVI; 3.46 µM (inactive) with NCI-H460. The GI50 in the assay on OVCAR-4 is 2.47 µM (inactive); in the assay with RXF 393 it was 1.62 µM (inactive); in the assay with SK-OV-3, 3.68 µM (inactive); in the assay on SN12C, 4.28 µM (inactive); in the assay with SW-620 it was 3.02 µM (inactive); with TK-10 it was 2.56 µM (inactive). Further, the GI50 in the assay on U-251 was 2.42 µM (inactive); in the assay on UACC-62 it was 2.67 µM (inactive).

With `OC[C@@H]1CC#C/C=C\C#CC[C@@H]1CO`, the GI50 in the assay with 786-0, in the assay on EKVX, in the assay on HCT-116, with K562, in the assay on Malme-3M and in the assay on OVCAR-4 was > 100 µM (inactive) in each case. Besides, the GI50 in the assay on RXF 393 is > 100 µM (inactive); with SF-268 it was < 0.01 µM (active); in the assay with SK-OV-3, > 100 µM (inactive); in the assay on TK-10, > 100 µM (inactive); in the assay on U-251, > 100 µM (inactive).

`C/N=C(\SC)N(C)c1nc(=[N+](C)C)ss1.[O-][Cl+3]([O-])([O-])[O-]`: the GI50 in the assay with 786-0 is > 100 µM (inactive); with EKVX, 45.3 µM (inactive); in the assay with HCT-116, > 100 µM (inactive); with K562, 10.7 µM (inactive); in the assay on LOX IMVI, > 100 µM (inactive); with RXF 393, > 100 µM (inactive). Also, the GI50 with SF-268 is > 100 µM (inactive); in the assay with SK-OV-3, > 100 µM (inactive); with SN12C, > 100 µM (inactive); in the assay on SW-620, 31.6 µM (inactive); in the assay with TK-10, > 100 µM (inactive); in the assay on U-251, > 100 µM (inactive). Also, the GI50 in the assay on UACC-62 was 4.9 µM (inactive).

Take `N=C(N)N/N=C(/CCN1CCCC1)CC(c1ccccc1)c1c(O)c2ccccc2oc1=O` (stereo unspecified): the GI50 with 786-0, with EKVX, in the assay on HCT-116, with K562, with LOX IMVI and with Malme-3M was > 100 µM (inactive) throughout. The GI50 in the assay on OVCAR-4, in the assay with RXF 393, with SF-268, in the assay with SK-OV-3, with SN12C and in the assay on SW-620 was > 100 µM (inactive) in each case. Besides, the GI50 in the assay on TK-10 and with UACC-62 was > 100 µM (inactive) each time.

On to `Cc1[nH]c2ccccc2c1CC/C(=N\Nc1ccccc1)c1ccccc1`, for which the GI50 in the assay on 786-0, with EKVX, in the assay with HCT-116, with K562, in the assay on Malme-3M and in the assay with NCI-H460 was > 100 µM (inactive) throughout. The GI50 in the assay on OVCAR-4, in the assay on RXF 393, in the assay with SK-OV-3, with SW-620, in the assay on TK-10 and in the assay on U-251 was > 100 µM (inactive) in each case. The GI50 with UACC-62 is > 100 µM (inactive).

As to `N#CC(C(=O)C(=O)Nc1ccc(Cl)c(Cl)c1)c1ccc(Cl)cc1` (stereo unspecified), the GI50 was 41 µM (inactive) in the assay with 786-0; > 100 µM (inactive) with EKVX; 23.6 µM (inactive) with HCT-116; 23.4 µM (inactive) in the assay on K562; 16.7 µM (inactive) in the assay on LOX IMVI; 97.3 µM (inactive) in the assay with Malme-3M. In addition, the GI50 with NCI-H460 is 32.1 µM (inactive); in the assay with RXF 393 it was > 100 µM (inactive); with SF-268, > 100 µM (inactive); in the assay on SK-OV-3, > 100 µM (inactive); in the assay on SN12C, 91 µM (inactive); with SW-620 it was 16 µM (inactive). For the same molecule, the figures for the GI50 in the assay on TK-10, with U-251 and with UACC-62 were > 100 µM (inactive), 40.8 µM (inactive) and 30.5 µM (inactive), respectively.

As to `Cn1c(=O)c2nc(-c3ccc(Cl)cc3)oc2n(C)c1=O`, the GI50 in the assay on 786-0, in the assay on EKVX, with HCT-116, in the assay on K562, in the assay on LOX IMVI and in the assay on Malme-3M was > 100 µM (inactive) in each case. For the same molecule, the GI50 in the assay on NCI-H460, in the assay on OVCAR-4, with RXF 393, in the assay with SF-268, in the assay on SN12C and in the assay on SW-620 was > 100 µM (inactive) in each case. Besides, the GI50 in the assay with TK-10, with U-251 and in the assay with UACC-62 was > 100 µM (inactive) throughout.

Regarding `CCOC(=O)/C(=C/c1ccc(OC)c(OC)c1)C(=O)c1ccccc1`, the GI50 is > 100 µM (inactive) with 786-0; 25.8 µM (inactive) in the assay with EKVX; 10.3 µM (inactive) in the assay on K562; 76.6 µM (inactive) in the assay with Malme-3M; 33.3 µM (inactive) in the assay with NCI-H460; 21.4 µM (inactive) in the assay on OVCAR-4. The GI50 in the assay on SF-268 was 14.8 µM (inactive); in the assay on SK-OV-3 it was 24.2 µM (inactive); with SN12C, > 10 µM (inactive); with SW-620 it was 19.4 µM (inactive); with TK-10, 26.4 µM (inactive); in the assay on U-251 it was 19.5 µM (inactive). Also, the GI50 in the assay on UACC-62 was 13.2 µM (inactive).

In the case of `C#CC[C@]12CC(=O)CC[C@H]1CC(=O)C2`, the GI50 with 786-0, in the assay on HCT-116, in the assay on K562, in the assay on Malme-3M, with NCI-H460 and in the assay with OVCAR-4 was > 100 µM (inactive) in each case. For the same molecule, the GI50 in the assay on RXF 393, with SF-268, in the assay with SK-OV-3, in the assay on SN12C, in the assay on SW-620 and in the assay on TK-10 was > 100 µM (inactive) throughout. Moreover, the GI50 in the assay with U-251 and in the assay on UACC-62 was > 100 µM (inactive) throughout.
